# Measured values taken from paper PMC5691318 (Journal of the American Chemical Society, 2017).
# Where a SMILES comes first, the peptide text is derived from it. [ ]: non-standard residue; d: D form. pS = N[C@@H](COP(=O)(O)O)C(=O)O
# T1: 14-3-3ζ (Homo sapiens, UniProt P63104)
# T1 sequence (P63104 1-230): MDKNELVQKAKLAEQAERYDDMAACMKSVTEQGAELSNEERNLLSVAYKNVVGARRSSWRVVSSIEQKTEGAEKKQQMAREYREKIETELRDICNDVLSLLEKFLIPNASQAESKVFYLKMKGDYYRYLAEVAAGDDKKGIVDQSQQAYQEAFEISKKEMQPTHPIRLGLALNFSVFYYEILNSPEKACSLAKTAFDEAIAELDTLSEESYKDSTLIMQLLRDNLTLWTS
# T1 sequence (P30307 207-244 partner): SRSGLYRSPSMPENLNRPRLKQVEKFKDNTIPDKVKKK
# T2: Cdc25CpS216 peptide (Homo sapiens, not fully specified; phosphoSer216, 1.5 mM CLR01)
# T2 chain: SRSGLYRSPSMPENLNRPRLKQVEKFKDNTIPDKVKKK
# T3: Cdc25CpS216 peptide (Homo sapiens, not fully specified; phosphoSer216, 250 μM CLR01)
# T3 chain: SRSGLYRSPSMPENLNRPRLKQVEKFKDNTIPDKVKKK
# T4: Cdc25CpS216 peptide (Homo sapiens, not fully specified; phosphoSer216)
# T4 chain: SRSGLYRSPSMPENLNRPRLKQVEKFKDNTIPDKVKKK
# B1: 14-3-3ζ (protein)
# chain: MDKNELVQKAKLAEQAERYDDMAACMKSVTEQGAELSNEERNLLSVAYKNVVGARRSSWRVVSSIEQKTEGAEKKQQMAREYREKIETELRDICNDVLSLLEKFLIPNASQAESKVFYLKMKGDYYRYLAEVAAGDDKKGIVDQSQQAYQEAFEISKKEMQPTHPIRLGLALNFSVFYYEILNSPEKACSLAKTAFDEAIAELDTLSEESYKDSTLIMQLLRDNLTLWTSDTQGDEAEAGEGGEN
# Key:
# [1] = test system: 14-3-3 with the chloride channel CFTR; details: ref [18]; cited from earlier work
# [2] = test system: Arf1/Arf1GAP; details: ref [48],[49]; cited from earlier work
# [3] = test system: TASK3 plasma membrane localization; details: ref [47]; cited from earlier work
# [4] = test system: 14-3-3 proteins with the potassium channel TASK3; details: ref [47]; cited from earlier work
# [5] = molecular target: T1, 14-3-3ζ; experiment: Isothermal titration calorimetry; assay type: binding
# [6] = test system: 14-3-3 with the protein kinase C-Raf; details: ref [48]; cited from earlier work
# [7] = Potentiometric pKa determination; assay type: physicochemical; details: determined potentiometrically
# [8] = test system: 14-3-3/C-Raf peptide; details: fluorescence polarization, labeled peptide; ref [31]; cited from earlier work
# [9] = test system: 14-3-3/Exoenzyme S peptide; details: fluorescence polarization, labeled peptide; ref [31]; cited from earlier work
# [10] = test system: 14-3-3ζ/Cdc25CpS216 interaction; experiment: ITC: reinforcement of the 14-3-3ζ/Cdc25CpS216 interaction by CLR01; assay type: binding; details: 250 μM or 1.5 mM CLR01 vs no CLR01
# [11] = molecular target: T2, Cdc25CpS216 peptide; experiment: ITC
# [12] = molecular target: T3, Cdc25CpS216 peptide; experiment: ITC
# [13] = molecular target: T4, Cdc25CpS216 peptide; experiment: ITC
molecule,measurement,setting,value
C=CC(C)(C)OC[C@H]1O[C@H](O[C@@H]2C3=C([C@H](C)COC(C)=O)C[C@H](O)[C@]3(C)/C=C3/[C@@H](COC)CC[C@H]3[C@@H](C)[C@H]2O)[C@H](O)[C@@H](OC(C)=O)[C@@H]1O [fusicoccin],stabilization factor of 14-3-3 binding with CFTR,[1],9
C[C@H]1CCC/C=C/[C@@H]2C[C@H](O)C[C@H]2[C@H](O)/C=C/C(=O)O1 [brefeldin A],stabilization factor of target protein complex Arf1/Arf1GAP,[2],10
COCC1CCC2C1=CC1(C)C(=C(C(C)C)C3CCOC31)C(OC1OC3COC(C)(C)OC3C(O)C1O)C(O)C2C (stereo not shown) [FC-THF],increase in plasma membrane localization,[3],50%
same,stabilization of the interaction of 14-3-3 proteins with TASK3,[4],around 19 fold
CC[C@H](C)[C@H](NC(=O)[C@@H](NC(=O)[C@H](CC(N)=O)NC(=O)[C@H](CC(=O)O)NC(=O)[C@H](CCCCN)NC(=O)[C@H](Cc1ccccc1)NC(=O)[C@H](CCCCN)NC(=O)[C@H](CCC(=O)O)NC(=O)[C@@H](NC(=O)[C@H](CCC(N)=O)NC(=O)[C@H](CCCCN)NC(=O)[C@H](CC(C)C)NC(=O)[C@H](CCCNC(=N)N)NC(=O)[C@@H]1CCCN1C(=O)[C@H](CCCNC(=N)N)NC(=O)[C@H](CC(N)=O)NC(=O)[C@H](CC(C)C)NC(=O)[C@H](CC(N)=O)NC(=O)[C@H](CCC(=O)O)NC(=O)[C@@H]1CCCN1C(=O)[C@H](CCSC)NC(=O)[C@H](COP(=O)(O)O)NC(=O)[C@@H]1CCCN1C(=O)[C@H](CO)NC(=O)[C@H](CCCNC(=N)N)NC(=O)[C@H](Cc1ccc(O)cc1)NC(=O)[C@H](CC(C)C)NC(=O)CNC(=O)[C@H](CO)NC(=O)[C@H](CCCNC(=N)N)NC(=O)[C@@H](N)CO)C(C)C)[C@@H](C)O)C(=O)N1CCC[C@H]1C(=O)N[C@@H](CC(=O)O)C(=O)N[C@@H](CCCCN)C(=O)N[C@H](C(=O)N[C@@H](CCCCN)C(=O)N[C@@H](CCCCN)C(=O)N[C@@H](CCCCN)C(=O)O)C(C)C [Cdc25CpS216] (H-SRSGLYRSP[pS]MPENLNRPRLKQVEKFKDNTIPDKVKKK-OH),Kd,[5],5.16 µM
COCC1O[C@H](O[C@@H]2C3=C(C(C)C)CC[C@]3(C)/C=C3\[C@@H](CC[C@]3(O)COC)[C@@H](C)[C@H]2O)C(O)C2OC3O[C@]12O[C@@]3(C)C1CO1 (stereo partly shown) [cotylenin A],stabilization factor of 14-3-3 binding with C-Raf,[6],17
O=P(O)(O)Oc1c2c(c(OP(=O)(O)O)c3c1C1CC3c3cc4c(cc31)C1CC4c3ccccc31)C1CC2c2cc3c(cc21)C1CC3c2ccccc21 [CLR01],second pKa value of the hydrogen phosphate group,[7],7.4
same,effect on binding of C-Raf-derived peptide to 14-3-3,[8],inhibited
same,effect on binding of Exoenzyme S-derived peptide to 14-3-3,[9],inhibited
same,reinforcement of the 14-3-3ζ/Cdc25CpS216 interaction,[10],2–3 fold
B1,Kd,[11],2.06 µM
same,Kd,[12],2.75 µM
same,Kd,[13],5.16 µM
